From US6632616B2, “Compounds that selectively bind to expanded polyglutamine repeat domains and methods of use thereof” (Duke University, priority 2000, dated 2003) come the findings set out here.

One assay deals with thio-Q62. The assay is described as follows: Thioredoxin-polyglutamine turbidity (aggregation) assay, thio-Q62. The assay is classed as biochemical. Conditions: for Ability to Inhibit Aggregation: 62 glutamines, 10 days. As for the experimental part: (§1) Turbidity assays were performed in 200 μl reactions consisting of thioredoxin-polyglutamine in PBS in 96-well, low protein binding plates. Plates were incubated at 4° C. and turbidity measured at 405 nm on a Thermo Max plate reader (Molecular Devices).
Sequence of thio-Q62 (as listed by the source): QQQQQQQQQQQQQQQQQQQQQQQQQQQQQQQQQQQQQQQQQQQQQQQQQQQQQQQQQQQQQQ
(§2) Peptides were synthesized at the Howard Hughes Medical Institute peptide sequencing facility at Duke University with an acetylated amino terminus and protection of tryptophan with BOC during synthesis. Identical results were obtained with peptides obtained from Bio-Synthesis Inc. (Lewisville, Tex.). Stock solutions of peptides were prepared fresh daily by dissolving in dimethyl sulfoxide at 2.5 mM and incubated with thioredoxin-polyglutamine protein at 0.25-25 μM.
(§3) To monitor thioredoxin-polyglutamine protein aggregation a turbidometric assay was developed, similar to the assays commonly used to study microtubule assembly and β-amyloid aggregation (Jarrett, J. T. et al. (1993) Biochem 32, 4693-4697; Sloboda, R. D. et al. (1976) Biochem 15, 4497-4505). Solutions of thio-Q62 and 81 protein increased turbidity in a polyglutamine length-, time- and concentration-dependent manner (FIG. 1B and C; Time dependence of aggregation of thioredoxin-polyglutamine with 81 glutamines not shown). […] The pelleted and retained material was confirmed as thioredoxin-polyglutamine fusion protein containing 62 or 81 glutamines on western blots probed with anti-thioredoxin or anti-polyglutamine antibody (not shown). In contrast, thioredoxin-polyglutamine protein containing 19 or 35 glutamines (thio-Q19 or 35) was not pelleted by centrifugation and was not trapped by a 0.22 μm filter.

A further assay concerns Q81-YFP. The assay is described as follows: Peptides added to transfected COS 7 cells expressing Q81-YFP: aggregation. The assay is classed as cell-based. The source says: (§4) Several proteins can ferry peptides or proteins into cells through the plasma membrane including HIV transactivator protein (TAT) (SEQ ID NO:37), antennapedia (SEQ ID NO:38), and herpes simplex virus type 1 protein 22 (SEQ ID NO:39) (Prochiantz, Curr Opin Cell Biol. 12:400-406 (2000)). […] The arginine-rich domains of these proteins are sufficient to transport some intact proteins even when fused to non-native proteins. The ability of polyglutamine-binding peptides fused to a TAT fragment to enter transfected COS 7 cells and inhibit polyglutamine aggregation and cell death was examined.
Sequence of Q81-YFP (as listed by the source): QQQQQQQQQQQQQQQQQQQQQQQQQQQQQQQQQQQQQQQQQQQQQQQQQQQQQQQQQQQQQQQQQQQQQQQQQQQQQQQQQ

Assay [1] deals with COS 7 cells expressing Q81-YFP. The assay is described as follows: Peptides added to transfected COS 7 cells expressing Q81-YFP: cell death. The assay is classed as cell-based.
Description: as §4

In assay [2] the test system is Q57-YFP induced cell death. The assay is described as follows: Q57-YFP induced cell death in co-transfected COS-7 cells (ethidium homodimer). The assay is classed as cell-based. Conditions: peptides fused to CFP, co-expressed; COS-7, 48 hours; ethidium homodimer. Here is the method: FIG. 5. […] Open bar=cells co-transfected with Q57-YFP and RAN-CFP. Hatched bar=cells co-transfected with Q57-YFP and SCR-CFP. Filled bar=cells co-transfected with Q57-YFP and QBP1-CFP. Dotted bar=cells co-transfected with Q57-YFP and (QBPI)2-CFP. COS-7 cells examined 48 hours after transfection using a Zeiss fluorescence microscope with rhodamine filter set. The percentage of dead cells was calculated by counting the number of transfected cells stained with ethidium homodimer and dividing by the total number of transfected cells multiplied times 100. In each experiment at least 200 transfected cells were counted. Experiments were repeated at least three times. Error bars represent standard errors. *=p<0.05; **=p<0.01 (Student's t-test).
COS-7 cells were grown and maintained in Dulbecco's modified Eagles' medium (DMEM) supplemented with 10% fetal calf serum (FCS). Cells were transfected with Effectene according to manufacturer's instructions (Qiagen GmbH, Hilden, Germany). Cells were examined 48 hours after transfection using a Zeiss fluorescence microscope equipped with YFP/CFP filter sets (Omega Optical Inc., Brattleboro, Vt.). The percentage of cells with aggregates was calculated by dividing the number of cells with aggregates by the total number of fluorescent cells, multiplied by 100. Cell viability was examined 48 hours after transfection using ehtidium homodimer (Molecular Probes, Eugene, Oreg.). Cells were incubated with 5 μM ethidium homodimer for 30 minutes (37° C.) and then examined under a fluorescence microscope equipped with a rhodamine filter set. Cells with nuclear fluorescence were counted as dead. In each experiment at least 200 transfected cells were counted. Cells expressing random peptide-CFP (RAN-CFP) and polyglutamine-YFP (Qn-YFP) were used as a control to calculate the relative difference in aggregate formation and cell death. Experiments were repeated at least four times.
The relationship between polyglutamine protein aggregation and cell death is controversial. To determine whether QBP1 or tandem-QBP1 inhibit polyglutamine-induced cell death, cell membrane permeability to ethidium homodimer was assayed. The membranes of living cells are impermeable to ethidium homodimer and permeability to ethidium homodimer is a well-established measure of cell death. Ethidium homodimer undergoes a 30-fold increase in fluorescence upon binding to nucleic acid allowing easy detection with a fluorescence microscope using a rhodamine filter. QBP1 and tandem QBP1 ((QBP1)2) fused to CFP inhibit Q57-YFP induced cell death (FIG. 5). […] Similar results have also been observed with Q45- and Q81-YFP (not shown).

In another assay the test system is thio-Q19 or 35. The assay is described as follows: Thioredoxin-polyglutamine turbidity assay, nonpathologic thio-Q19 or 35. The assay is classed as biochemical. Here is the method: as §1, §2, §3
The mark [3] stands for this setting: 5 μm peptide and 15 μM thio-polyglutamine.
The mark [4] stands for this setting: TAT-fused peptides, 10 μm peptide and 15 μM thio-polyglutamine.
The mark [5] stands for this setting: versus random peptide fused to TAT.

In the case of WKWWPGIF, in the assay with thio-Q62, the “inhibition of polyglutamine-thioredoxin aggregation (FIG. 6 and 7)” value is recorded as “retains full inhibitory activity”.
For the substance WKWWPGIFD, the “Ability to Inhibit Aggregation” value with thio-Q62 (setting [3]) is reported as “++++ (++++ = full inhibition)”. The “effect on aggregation in cells (in words)” value in the assay with Q81-YFP (peptide added to cells) was “no effect”. Further, the “effect on cell death (in words)” value in assay [1] (peptide added to cells) is listed as “no effect”.
For WKWWPGIFD-TAT (WKWWPGIFDGGYGRKKRRQRRR), in the assay on thio-Q62 (setting [4]), the “Ability to Inhibit Aggregation” value was “+++ (+++ = 75% inhibition)”. Moreover, the “percentage of transfected cells with Q81-YFP aggregates” value with Q81-YFP (peptide added to cells) worked out at 22.1%. For the same substance, the “inhibition of Q81-YFP aggregation” value in the assay with Q81-YFP (setting [5]) was determined as 32%. Also, the “inhibition of cell death” value in assay [1] (setting [5]) was 39%. Moreover, the “percentage of transfected cells that died” value in assay [1] (within 72 hours) came to 6.0%.
As for WKWWPWKWW, the “Ability to Inhibit Aggregation” value with thio-Q62 (setting [3]) was “+++ (+++ = 75% inhibition)”.
On to WKWWPWKWW-TAT (WKWWPWKWWGGYGRKKRRQRRR), for which the “Ability to Inhibit Aggregation” value with thio-Q62 (setting [4]) was “++++ (++++ = full inhibition)”.
WKWWVWKWW: the “Ability to Inhibit Aggregation” value in the assay on thio-Q62 (setting [3]) is recorded as “++ (++ = 50% inhibition)”.
Still for that read-out and setting: to WKWWVWKWWP belongs “++++ (++++ = full inhibition)”.
Consider “WKWWVWKWWP-TAT (WKWWVWKWWPGGYGRKKRRQRRR)”, for which the “Ability to Inhibit Aggregation” value with thio-Q62 (setting [4]) is “++++ (++++ = full inhibition)”.
For the substance WLWWPGIFD, in the assay with thio-Q62 (setting [3]), the “Ability to Inhibit Aggregation” value is “++ (++ = 50% inhibition)”.
In the case of WPIWSKGNDWF [SCR, reference compound], in assay [2], the “inhibition of Q57-YFP induced cell death” value is “does not inhibit cell death”. Moreover, the “inhibition of thio-Q62 aggregation (in words)” value with thio-Q62 (turbidity at 405 nm, FIG. 2) is recorded as “did not inhibit aggregation”. In addition, in the assay with thio-Q19 or 35, the “effect on turbidity of nonpathologic thio-Q19 or 35” value was “no effect”.
As for WVWWPGIFD, in the assay on thio-Q62 (setting [3]), the “Ability to Inhibit Aggregation” value is on record as “+++ (+++ = 75% inhibition)”.
Consider WWWWPGIFD, for which the “Ability to Inhibit Aggregation” value in the assay with thio-Q62 (setting [3]) is “++ (++ = 50% inhibition)”.
